{
  "source": "paper PMC8448162",
  "about": "“Single- and Multiple-Ascending-Dose Study of the Safety, Tolerability, and Pharmacokinetics of the Polymyxin Derivative SPR206” (Antimicrobial Agents and Chemotherapy, 2021)",
  "key": {"healthy subjects [1]": {"system": "healthy subjects", "experiment": "Safety and tolerability (adverse events, laboratory tests, ECG), first-in-human SAD/MAD study, 1-h i.v. infusion", "type": "in vivo", "description": "This was a single-center, phase 1, randomized, double-blind, placebo-controlled, first-in-human study to assess the safety, tolerability, and PK of SPR206 following SAD and MAD administrations (Fig. 7). In the SAD phase, subjects received a single i.v. dose of SPR206, and in the MAD phase, subjects received i.v. doses of SPR206 every 8 h (q8h) over a period of 7 to 14 days. SPR206 was administered as a 1 h i.v. infusion.\nIn the SAD phase, healthy subjects were screened within 28 days prior to dosing and admitted to the clinical facility on day −1. A single i.v. dose of SPR206 or placebo was administered on day 1. Following completion of all safety assessments and sampling for PK analyses, subjects were discharged on day 2. A follow-up visit occurred 5 to 7 days after day 1 dosing.\nIn the SAD phase, subjects were randomized to one of seven cohorts consisting of 10-, 25-, 50-, 100-, 200-, 300-, and 400-mg doses of SPR206. Within each cohort, two subjects received placebo and six subjects received SPR206. Two subjects (sentinels) were dosed with SPR206 or placebo 48 h prior to the remaining subjects. The remaining six subjects were only dosed after no safety concerns were identified in the sentinel subjects. After each dose cohort had completed study drug dosing and safety evaluations, a safety monitoring group (SMG) reviewed blinded cumulative safety data (including day 5 to 7 follow-up data) to confirm the safety and tolerability of SPR206. Blood and urine samples were collected for assessment of PK parameters.\nIn the MAD phase, all subjects were admitted to the clinical facility on day −1. Dosing commenced on the morning of day 1. Three doses were administered daily at approximately 8 (±0.5)-hour intervals for a total of 7 consecutive days (cohorts 9 through 12) and 14 consecutive days (cohort 13). The last dose was administered on the morning of day 14. Subjects were discharged on day 16 following completion of all PK sample collection and safety assessments, and a follow-up visit occurred 12 to 14 days after the last dose.\nThe MAD phase began after completion of the SAD phase, and the appropriate starting dose level was established. Two subjects received placebo, and six subjects received SPR206 doses of 25, 50, 100, and 150 mg q8h for 7 days and 100 mg q8h for 14 days. In each cohort of the MAD, two subjects (sentinels) began dosing with SPR206 or placebo 72 h prior to the remaining subjects in this cohort. The remaining six subjects were only dosed after no safety concerns were identified by the principal investigator. After each MAD dose cohort had completed administration of study drug and all evaluations, the safety monitoring group reviewed blinded cumulative safety data (including the day 19 to 21 follow-up data) to confirm the safety and tolerability of the study drug. Blood and urine samples were collected to measure SPR206 drug levels to determine SPR206 PK parameters.\nSafety assessments included clinical laboratory testing (hematology, coagulation, serum chemistry, urinalysis), vital signs (blood pressure, heart rate, body temperature, respiratory rate), physical examination, and triplicate 12-lead ECG to assess corrected QT interval by Fredericia (QTcF). In the SAD phase, continuous cardiac monitoring was performed from 1 h predose through 24 h postdose. Adverse events were recorded at each study visit.\nSerum creatinine concentrations were measured from the clinical laboratory tests performed on days −1 and 15. Urine creatinine concentration were measured using 24 h collections prior to the first dose on day 1 and over 24 to 48 h following the start of infusion of the last dose (day 14)."}, "[2]": {"type": "in vitro ADME", "description": "In the MAD phase, plasma samples for PK analysis were collected (i) on day 1—pre-dose and at 30, 60, 75, 90, 105, 120, and 150 min and at 3, 5, and 8 h following start of the first infusion; (ii) prior to the morning dose (within 10 min) on days 2, 3, 5, 7, 9, 11, and 13; and (iii) predose and 30, 75, 90, 105, 120, and 150 min and 3, 5, 8, and 12 h (day 14), 24, 36 (day 15), and 48 h (day 16) following start of the last infusion. Urine was collected for PK assessment on day 1 predose, over the intervals 0 to 4 h and 4 to 8 h after start of first infusion, and on days 14 and 15 over the intervals 0 to 4 h, 4 to 8 h, 8 to 12 h, and 12 to 24 h after start of day 14 infusion. Total 24-h urine for calculating CrCl was collected from the morning of day −1 to predose on day 1 and on days 15 and 16 over the interval from 24 to 48 h after the start of the day 14 infusion. Urine creatinine concentrations were measured using 24-h collections prior to the first dose on day 1 and over the 24 to 48 h following start of infusion of the last dose (day 14). Plasma and urine samples for SPR206 levels were analyzed using a validated liquid chromatography-tandem mass spectrometry (LC-MS/MS) method. The assay range for SPR206 was 50 to 5,000 ng/ml in plasma and 100 to 50,000 ng/ml in urine. […]"}, "healthy subjects [3]": {"system": "healthy subjects", "experiment": "Safety and tolerability (adverse events, laboratory tests, ECG), first-in-human SAD/MAD study, 1-h i.v. infusion", "details": "in vivo"}, "[4]": {"details": "in vivo; cited from earlier work"}, "[5]": {"details": "MAD, 25 mg q8h × 7 days (n = 6)"}, "[6]": {"details": "MAD, 50 mg q8h × 7 days (n = 6)"}, "[7]": {"details": "MAD, 100 mg q8h × 7 days (n = 6)"}, "[8]": {"details": "MAD, 100 mg q8h × 14 days (n = 6)"}, "[9]": {"details": "MAD, 150 mg q8h × 7 days (n = 6)"}, "[10]": {"details": "SAD, single i.v. dose 10 mg (n = 6)"}, "[11]": {"details": "SAD, single i.v. dose 50 mg (n = 6)"}, "[12]": {"details": "SAD, single i.v. dose 100 mg (n = 6)"}, "[13]": {"details": "SAD, single i.v. dose 200 mg (n = 6)"}, "[14]": {"details": "SAD, single i.v. dose 400 mg (n = 6)"}},
  "note": "Positions of bridges follow the written chain, without caps; N, C: chain ends. Non-standard residues stand in square brackets, D forms with d. Residues, ends and D or L forms follow the SMILES beside them. *: point of attachment. X1 = NC[C@@H](CC(=O)*)c1cccc(Cl)c1; Dab = NCC[C@H](N)C(=O)O; Dap = NC[C@H](N)C(=O)O",
  "data": [
    {"smiles": "CC(C)C[C@@H]1NC(=O)[C@@H](Cc2ccccc2)NC(=O)[C@H](CCN)NC(=O)[C@@H](NC(=O)[C@H](CN)NC(=O)[C@@H](NC(=O)C[C@H](CN)c2cccc(Cl)c2)[C@@H](C)O)CCNC(=O)[C@H]([C@@H](C)O)NC(=O)[C@H](CCN)NC(=O)[C@H](CCN)NC1=O", "note": "[SPR206] (X1-T[Dap][Dab][Dab][dF]L[Dab][Dab]T; lactam 3-C (inferred))", "values": [
      {"measurement": "At least one treatment-related adverse event", "setting": "healthy subjects [1]; [5]", "value": "1 (16.7) No. (%) of subjects"},
      {"measurement": "TEAE Infusion site phlebitis", "setting": "healthy subjects [1]; [5]", "value": "0 No. (%) of subjects"},
      {"measurement": "TEAE Headache", "setting": "healthy subjects [1]; [6]", "value": "2 (33.3) No. (%) of subjects"},
      {"measurement": "TEAE Infusion site phlebitis", "setting": "healthy subjects [1]; [6]", "value": "1 (16.7) No. (%) of subjects"},
      {"measurement": "TEAE Paresthesia oral", "setting": "healthy subjects [1]; [6]", "value": "2 (33.3) No. (%) of subjects"},
      {"measurement": "TEAE Headache", "setting": "healthy subjects [1]; [7]", "value": "2 (33.3) No. (%) of subjects"},
      {"measurement": "TEAE Infusion site phlebitis", "setting": "healthy subjects [1]; [7]", "value": "1 (16.7) No. (%) of subjects"},
      {"measurement": "TEAE Paresthesia oral", "setting": "healthy subjects [1]; [7]", "value": "1 (16.7) No. (%) of subjects"},
      {"measurement": "TEAE Dizziness", "setting": "healthy subjects [1]; [8]", "value": "2 (33.3) No. (%) of subjects"},
      {"measurement": "TEAE Headache", "setting": "healthy subjects [1]; [8]", "value": "1 (16.7) No. (%) of subjects"},
      {"measurement": "TEAE Infusion site phlebitis", "setting": "healthy subjects [1]; [8]", "value": "1 (16.7) No. (%) of subjects"},
      {"measurement": "TEAE Paresthesia oral", "setting": "healthy subjects [1]; [8]", "value": "1 (16.7) No. (%) of subjects"},
      {"measurement": "TEAE Constipation", "setting": "healthy subjects [1]; [9]", "value": "1 (16.7) No. (%) of subjects"},
      {"measurement": "TEAE Dry mouth", "setting": "healthy subjects [1]; [9]", "value": "2 (33.3) No. (%) of subjects"},
      {"measurement": "TEAE Infusion site phlebitis", "setting": "healthy subjects [1]; [9]", "value": "2 (33.3) No. (%) of subjects"},
      {"measurement": "TEAE Paresthesia oral", "setting": "healthy subjects [1]; [9]", "value": "2 (33.3) No. (%) of subjects"},
      {"measurement": "TEAE leading to drug withdrawal", "setting": "healthy subjects [1]; [9]", "value": "2 (33.3) No. (%) of subjects"},
      {"measurement": "At least one treatment-emergent adverse event", "setting": "healthy subjects [1]; [10]", "value": "1 (16.7) No. (%) of subjects"},
      {"measurement": "At least one treatment-related adverse event", "setting": "healthy subjects [1]; [10]", "value": "1 (16.7) No. (%) of subjects"},
      {"measurement": "At least one treatment-emergent adverse event", "setting": "healthy subjects [1]; [11]", "value": "1 (16.7) No. (%) of subjects"},
      {"measurement": "At least one treatment-related adverse event", "setting": "healthy subjects [1]; [11]", "value": "1 (16.7) No. (%) of subjects"},
      {"measurement": "At least one treatment-emergent adverse event", "setting": "healthy subjects [1]; [12]", "value": "1 (16.7) No. (%) of subjects"},
      {"measurement": "At least one treatment-related adverse event", "setting": "healthy subjects [1]; [12]", "value": "1 (16.7) No. (%) of subjects"},
      {"measurement": "At least one treatment-emergent adverse event", "setting": "healthy subjects [1]; [13]", "value": "2 (33.3) No. (%) of subjects"},
      {"measurement": "At least one treatment-related adverse event", "setting": "healthy subjects [1]; [13]", "value": "2 (33.3) No. (%) of subjects"},
      {"measurement": "TEAE Diarrhea", "setting": "healthy subjects [1]; [14]", "value": "2 (33.3) No. (%) of subjects"},
      {"measurement": "TEAE Fatigue", "setting": "healthy subjects [1]; [14]", "value": "2 (33.3) No. (%) of subjects"},
      {"measurement": "TEAE Paresthesia", "setting": "healthy subjects [1]; [14]", "value": "1 (16.7) No. (%) of subjects"},
      {"measurement": "effect on renal function (serum creatinine and creatinine clearance)", "setting": "healthy subjects [1]; human, in vivo", "value": "no clinically significant effect on renal function"},
      {"measurement": "AEs of mild severity", "setting": "healthy subjects [1]; in vivo", "value": "84 % of all AEs"},
      {"measurement": "changes in vital signs, physical examination, or ECG parameters", "setting": "healthy subjects [1]; in vivo", "value": "no clinically significant changes"},
      {"measurement": "effect on liver function", "setting": "healthy subjects [1]; in vivo", "value": "no clinically significant effect on liver function"},
      {"measurement": "effect on the ECG", "setting": "healthy subjects [1]; in vivo", "value": "no effect on the ECG"},
      {"measurement": "serious AEs", "setting": "healthy subjects [1]; in vivo", "value": "No serious AEs"},
      {"measurement": "severe AEs", "setting": "healthy subjects [1]; in vivo", "value": "no severe AEs"},
      {"measurement": "subjects with paresthesia events considered nervous system disorders", "setting": "healthy subjects [1]; in vivo", "value": 7.4, "unit": "%"},
      {"measurement": "stability in urine", "setting": "[2]", "value": 147, "unit": "h"},
      {"measurement": "stability in plasma", "setting": "[2]; plasma", "value": 194, "unit": "h"},
      {"measurement": "subjects with oral hypoesthesia", "setting": "healthy subjects [3]", "value": 6, "unit": "subjects"},
      {"measurement": "subjects with oral paresthesia", "setting": "healthy subjects [3]", "value": 5, "unit": "subjects"},
      {"measurement": "accumulation after repeat dosing", "setting": "[4]", "value": "no apparent accumulation"}
    ]}
  ]
}
